Test results published in patent publication US6569902B2, “Nitrone inhibition of cancer development” (Oklahoma Medical Research Foundation, priority 2000, dated 2003).
pIC50: −log10 of the molar value. Where two headings read alike, the source gives them in different places.

Experiments:
[1] = tested on: rat liver microsome peroxidation; settings: read-out: IC50, inhibition of rat liver microsome peroxidation; cited from earlier work
[2] = tested on: livers of male Wistar rats fed the CDAA diet; assay: Example 2: histological liver injury (fibrosis, fatty liver); assay type: in vivo, rat; settings: high dose 0.090%, CDAA diet 16 weeks
Excerpt: (§1) Animal experiment. After acclimation, rats were divided equally into 22 groups consisting of 5 animals each. Animals in group 1 received the CDAA diet alone. […] Groups 5-7, 8-10, 11-13 and 14-16 received the CDAA diet containing the low, middle, and high doses of 4-OHPBN, 3-OHPBN, 2-OHPBN and 2-SPBN, respectively. Group 17 received the CSAA diet alone. […] All animals were sacrificed by exsanguination under light ether anesthesia 16 weeks after commencement, and the livers excised. Slices 5-mm-thick were taken from the left lateral, median and right lateral lobes of the livers, fixed in 10% neutrally-buffered formalin for 24 hours and then embedded in paraffin. Five serial 4-μm-thick sections were prepared from each fixed liver slice and used for histological and immunohistochemical assessment as described below. The remaining portions of the livers were immediately frozen under liquid nitrogen and stored at −80° C. until use.
Histological and immunohistochemical assessments. Histological assessment was performed using sections routinely stained with hematoxylin/eosin and Masson's trichrome procedures. Gradation of fibrosis was quantitatively evaluated in groups 1, 4, 7, 10, 13, 16 and 17 by calculating the percent area occupied by collagen fiber stained blue by Masson's trichrome method using an IPAP image analyzing system (Sumika Technoservice Corp., City of Osaka, Osaka, Japan). GST-P-positive lesions were visualized immunohistochemically. Lesions consisting of more than 6 cells were quantified using the IPAP system as described elsewhere (Kishida et al. 2000). The amount of apoptosis and the cellular proliferative activity were determined in groups 1, 4, 7, 10, 13, 16 and 17, using the double staining techniques by combination of the GST-P immunohistochemistry as above with the in situ terminal deoxynucleotidyl transferase-mediated dUTP-biotin nick end-labeling method (Gold et al. 1994) and the enhanced polymer one-step staining method for proliferating cell nuclear antigen (Tsutsumi et al. 1995), respectively. Numbers of apoptotic and proliferating hepatocytes among the 1000-5000 hepatocytes in GST-P-positive lesions and 5000 hepatocytes in surrounding tissue were counted under light microscopy to obtain percentages that are hereafter referred as apoptotic and proliferative indices, respectively.
(§2) Statistics. Inter-group differences in quantitative data for multiple groups were recognized to be significant, when p values smaller than 0.05 were obtained by the Dunnett multiple comparison test employed after one-way analysis of variance to determine the variation among the group means followed by the Bartlett's test to determine the homogeniety of variance.

rats fed the CDAA diet = settings: cited from earlier work; for size of neoplastic nodules: 12 weeks, CDAA only 1.92; for nodule number: CDAA only 190
[3] = tested on: livers of male Wistar rats fed the CDAA diet; assay: Example 2: oxidative hepatocyte injuries (8-OHdG, TBARS); assay type: in vivo, rat
Excerpt: as §1
Determination of oxidative hepatocyte injuries. Levels of oxidative damage to the hepatocytes were determined on frozen liver samples. Oxidative damage to nuclear DNA was assessed as previously described, using the amount of 8-hydroxydeoxyguanosine (8-OHdG) to 10^6 deoxyguanosine (dG) ratio as a parameter (Nakae et al. 1995). Oxidative injury to extra-nuclear components was assessed as described elsewhere, by determining picomole malondialdehyde equivalent (MDA eq.) levels of 2-thiobarbituric acid-reacting substances (TBARS) per milligram protein (Nakae et al. 1990).
as §2

[4] = tested on: male Wistar rats fed the CDAA diet; assay: Example 1 main study: hepatocarcinogenesis (HCA, HCC, fibrosis) in rats fed the CDAA diet for 70 weeks; assay type: in vivo, rat
Excerpt: Animals, diets and chemical. The protocols were approved prior to the experiments by the Animal Experimentation committee at Nara Medical University according to the Guidelines on Animal Experiments in accordance with Japanese Government Animal Protection and Management Law Number 105 and Japanese Government Notification on Feeding and Safekeeping of Animals Number 6. Male Wistar rats, 6 weeks old, were purchased from JapanSLC, Inc., Hamamatsu, Shizuoka, Japan. Rats were housed 5 each to a plastic cage with white flake bedding (Kansai Animal Corp., City of Kyoto, Kyoto, Japan) in an air-conditioned room (25±3° C. temperature, 55 ±8% relative humidity, 10-12/h ventilation and 12-h dark/light cycle). Rats were used for the experimentation after a 1-week acclimation on a basal diet (CE-1, Clea Japan, Meguro, Tokyo, Japan) and allowed free access to food and tap water throughout the acclimation and experimental periods. Body weight, food consumption and water intake were monitored weekly. The CDAA diet and a control CSAA diet were obtained from Dyets Inc., Bethlehem, PA.
Main study. A total of 60 rats were equally divided into 6 groups. Group 1 received the CDAA diet for 70 weeks. […] The time-point of 26 weeks after the commencement, when treatments were changed in groups 3 and 4, was decided according to the results of the pilot study (see the Results and Discussion section below). All surviving rats were sacrificed 70 weeks after the commencement, and the livers were taken. Two serial 4-μm-thick, 10%-neutrally-buffered-folmalin-fixed 9 for 24 h), paraffin-embedded liver specimens were prepared and stained routine H&E and Masson's trichrome procedures. The H&E-stained liver specimens were histologically examined according to the aforementioned criteria (Maronpot et al. 1986), and the incidences of HCA and HCC were determined. Grade of fibrosis were evaluated by analyzing percent area occupied by collagen fiber in the Masson's trichrome-stained liver specimens using an IPAP image analyzing system (Sumika Technoservice, Corp., City of Osaka, Osaka, Japan).
Statistical analyses. Statistical analyses were carried out using an InStat software (GraphPad Software, Inc., San Diego, Cali.). Fisher's exact test was used to assess statistical significance of inter-group differences of the lesion incidences. Student-Newrnan-Keuls multiple comparison test was used to assess statistical significance of inter-group differences of means after one-way ANOVA to determine variations among group means, followed by Bartlett's test to determine homogeneity of variance.

[5] = group 2: CDAA diet with PBN 0.065% in drinking water for 70 weeks, CDAA alone 57.1%
[6] = group 3: CDAA with PBN for first 26 weeks, then CDAA alone 44 weeks
[7] = group 4: CDAA alone 26 weeks, then CDAA with PBN for last 44 weeks
[8] = group 6: CSAA control diet with PBN 70 weeks (stated for groups 5 or 6)

CC(C)(C)[N+]([O-])=Cc1ccccc1 [PBN, phenyl N-tert-butyl nitrone]
pIC50 [1]: 2.30
grade of fibrosis versus group 1 [2]: significantly lower
size of neoplastic nodules (rats fed the CDAA diet; CDAA plus PBN 6 mg/kg-day): 0.33 mm^3
size of neoplastic nodules (rats fed the CDAA diet; CDAA plus PBN 30 mg/kg-day): 0.17 mm^3
size of neoplastic nodules (rats fed the CDAA diet; CDAA plus PBN 60 mg/kg-day): 0.10 mm^3
nodule number (rats fed the CDAA diet; PBN 6 mg/kg-day): 170 per mm^3
nodule number (rats fed the CDAA diet; PBN 30 mg/kg-day): 149 per mm^3
nodule number (rats fed the CDAA diet; PBN 60 mg/kg-day): 142 per mm^3
reduction of the amount of PGE2 in the CD-livers (rats fed the CDAA diet; highest dose): about 50%
decrease of nodule size (rats fed the CDAA diet; highest level of PBN): 95%
8-OHdG content (marker of DNA oxidation) in the CD-livers (rats fed the CDAA diet; increasing concentrations of PBN): reduced
decrease of nodule size (rats fed the CDAA diet; lowest level of PBN (6 mg/kg)): 83%
decrease of nodule number (rats fed the CDAA diet; lowest level of PBN): 11%
effect on COX-II expression (rats fed the CDAA diet; mRNA or protein level): no effect
connective tissue proliferation (rats fed the CDAA diet; rat, in vivo): significantly reduced
nuclear DNA 8-OHdG content increased by CDAA diet feeding ([3]; all doses, CDAA diet 16 weeks): significantly inhibited
TBARS level enhanced by CDAA feeding ([3]; high dose 0.090% only): significantly inhibited
carcinogenicity of PBN itself ([4]; 70-week study, PBN in drinking water): not carcinogenic itself
HCA incidence [4, 5]: 25.0%
HCC incidence [4, 5]: 25.0%
grade of fibrosis, percent of liver specimen occupied by fiber ([4]; group 2: PBN 70 weeks, group 1 (CDAA alone) 13.32%): 9.95%
HCA incidence [4, 6]: 28.6%
HCC incidence [4, 6]: 0%
grade of fibrosis, percent of liver specimen occupied by fiber ([4]; group 3: PBN first 26 weeks, group 1 13.32%): 8.71%
HCA incidence [4, 7]: 62.5%
HCC incidence [4, 7]: 0%
grade of fibrosis, percent of liver specimen occupied by fiber ([4]; group 4: PBN last 44 weeks, group 1 13.32%): 12.86%
grade of fibrosis ([4]; group 6: CSAA control diet with PBN 70 weeks (one value stated for groups 5 or 6)): 1.61%
HCA incidence [4, 8]: 0%
HCC incidence [4, 8]: 0%
